The text below walks through data of patent US12661384B2, “Methods for inducing cell division of postmitotic cells” (priority 2015, dated 2026).

This assay deals with Human embryonic stem cell-derived cardiomyocytes. Description: Screen of factor cocktails: PHH3 staining and total nuclei. The assay is classed as cell-based. Here is the method:
To determine an optimal cocktail of factors for inducing cell proliferation and/or cell cycle reentry of human postmitotic cardiomyocytes, combinations of factors were screened. […] Cells were treated with combinations of CDK1AF, CDK4, CCNB1, CCND1, AURKB or GFP control adenovirus, with or without combinations of TGF-βi (SB431542, “SB”), a […] (MK1775, “MK”), and IGF1. Analysis was performed to identify cocktails of factors that increased the number of cells undergoing mitosis as assessed by increased phospho-histone H3 staining at 4-, 8-, and 12-days after treatment with factor cocktails. FIG. 10, panel A. Analysis was also performed to identify which cocktails of factors had the highest cell survival as assessed by the increase in total number of nuclei. FIG. 10, panel B.

For the molecule `C=CCn1c(=O)c2cnc(Nc3ccc(N4CCN(C)CC4)cc3)nc2n1-c1cccc(C(C)(C)O)n1` [MK1775], the “replacement of factors in the cocktail” value (activation of CDK1 with small molecule) was “could replace CDK1 and CCNB1 from the cocktail”. As for `NC(=O)c1ccc(-c2nc(-c3ccc4c(c3)OCO4)c(-c3ccccn3)[nH]2)cc1` [SB431542], for the setting “4, 8 and 12 days after treatment”, the “cell survival (total number of nuclei)” value is reported as “enhanced survival”.
